ChEMBL document CHEMBL3885881, “DrugMatrix”

Species: Rattus norvegicus
Assay: DrugMatrix - Regimen: Daily Repeat
Type: toxicity, organism-based, Sprague-Dawley
Design: regimen Daily Repeat, gender Male, age 6-8 weeks
Conditions: in vivo, po, 2 mg/kg, route oral GAVAGE, dose level Low, […]; for ABSOLUTE BASOPHIL / ABSOLUTE EOSINOPHIL / ABSOLUTE LYMPHOCYTE / ABSOLUTE MONOCYTE / ABSOLUTE SEGMENTED NEUTROPHIL / BASOPHIL / EOSINOPHIL / ERYTHROCYTE COUNT / HEMATOCRIT / HEMOGLOBIN / LEUKOCYTE COUNT / LYMPHOCYTE / MEAN CORPUSCULAR HEMOGLOBIN / MEAN CORPUSCULAR HEMOGLOBIN CONCENTRATION / MEAN CORPUSCULAR VOLUME / MONOCYTE / NEUTROPHIL / NUCLEATED RED BLOOD CELLS / PLATELET COUNT: tissue Blood; for ALANINE AMINOTRANSFERASE / ALBUMIN / ALKALINE PHOSPHATASE / ASPARTATE AMINOTRANSFERASE / BLOOD UREA NITROGEN / CARBON DIOXIDE / CHLORIDE / CHOLESTEROL / CREATINE PHOSPHOKINASE / CREATININE / GLUCOSE / LACTATE DEHYDROGENASE / LIPASE / PHOSPHORUS / POTASSIUM / SODIUM / TOTAL BILIRUBIN / TOTAL PROTEIN / URIC ACID: tissue Plasma

Cc1nnc2n1-c1ccc(Cl)cc1C(c1ccccc1)=NC2 [ALPRAZOLAM]
ABSOLUTE BASOPHIL (72 h, time 3 day): 0 CELLS/uL
ABSOLUTE EOSINOPHIL (72 h, time 3 day): 40.33 CELLS/uL
ABSOLUTE LYMPHOCYTE (72 h, time 3 day): 13483.67 CELLS/uL
ABSOLUTE MONOCYTE (72 h, time 3 day): 168.67 CELLS/uL
ABSOLUTE SEGMENTED NEUTROPHIL (72 h, time 3 day): 1074 CELLS/uL
BASOPHIL (72 h, time 3 day): 0%
EOSINOPHIL (72 h, time 3 day): 0.33%
ERYTHROCYTE COUNT (72 h, time 3 day): 5.44 x10E6/uL
HEMATOCRIT (72 h, time 3 day): 34.8%
HEMOGLOBIN (72 h, time 3 day): 13.4 G/DL
LEUKOCYTE COUNT (72 h, time 3 day): 14.77 x10E3/uL
LYMPHOCYTE (72 h, time 3 day): 91%
MEAN CORPUSCULAR HEMOGLOBIN (72 h, time 3 day): 24.7 pg
MEAN CORPUSCULAR HEMOGLOBIN CONCENTRATION (72 h, time 3 day): 38.5 G/DL
MEAN CORPUSCULAR VOLUME (72 h, time 3 day): 64.17 fL
MONOCYTE (72 h, time 3 day): 1.33%
NEUTROPHIL (72 h, time 3 day): 7.33%
NUCLEATED RED BLOOD CELLS (72 h, time 3 day): 0 /100WBC
PLATELET COUNT (72 h, time 3 day): 1211 x10E3/uL
ALANINE AMINOTRANSFERASE (72 h, time 3 day): 78.67 u/L
ALBUMIN (72 h, time 3 day): 4.13 G/DL
ALKALINE PHOSPHATASE (72 h, time 3 day): 386.33 u/L
ASPARTATE AMINOTRANSFERASE (72 h, time 3 day): 99 u/L
BLOOD UREA NITROGEN (72 h, time 3 day): 15 mg/dL
CARBON DIOXIDE (72 h, time 3 day): 27 mmol/L
CHLORIDE (72 h, time 3 day): 99 MEQ/L
CHOLESTEROL (72 h, time 3 day): 68.67 mg/dL
CREATINE PHOSPHOKINASE (72 h, time 3 day): 276 u/L
CREATININE (72 h, time 3 day): 0.2 mg/dL
GLUCOSE (72 h, time 3 day): 160.33 mg/dL
LACTATE DEHYDROGENASE (72 h, time 3 day): 401.67 u/L
LIPASE (72 h, time 3 day): 10.33 u/L
PHOSPHORUS (72 h, time 3 day): 13.67 mg/dL
POTASSIUM (72 h, time 3 day): 7.37 MEQ/L
SODIUM (72 h, time 3 day): 142.63 MEQ/L
TOTAL BILIRUBIN (72 h, time 3 day): 0.23 mg/dL
TOTAL PROTEIN (72 h, time 3 day): 5.63 G/DL
URIC ACID (72 h, time 3 day): 1.7 mg/dL
ABSOLUTE BASOPHIL (120 h, time 5 day): 0 CELLS/uL
ABSOLUTE EOSINOPHIL (120 h, time 5 day): 0 CELLS/uL
ABSOLUTE LYMPHOCYTE (120 h, time 5 day): 13775.33 CELLS/uL
ABSOLUTE MONOCYTE (120 h, time 5 day): 53.67 CELLS/uL
ABSOLUTE SEGMENTED NEUTROPHIL (120 h, time 5 day): 1637.67 CELLS/uL
BASOPHIL (120 h, time 5 day): 0%
EOSINOPHIL (120 h, time 5 day): 0%
ERYTHROCYTE COUNT (120 h, time 5 day): 5.79 x10E6/uL
HEMATOCRIT (120 h, time 5 day): 35.1%
HEMOGLOBIN (120 h, time 5 day): 13.93 G/DL
LEUKOCYTE COUNT (120 h, time 5 day): 15.47 x10E3/uL
LYMPHOCYTE (120 h, time 5 day): 89%
MEAN CORPUSCULAR HEMOGLOBIN (120 h, time 5 day): 24.07 pg
MEAN CORPUSCULAR HEMOGLOBIN CONCENTRATION (120 h, time 5 day): 39.7 G/DL
MEAN CORPUSCULAR VOLUME (120 h, time 5 day): 60.57 fL
MONOCYTE (120 h, time 5 day): 0.33%
NEUTROPHIL (120 h, time 5 day): 10.67%
NUCLEATED RED BLOOD CELLS (120 h, time 5 day): 0 /100WBC
PLATELET COUNT (120 h, time 5 day): 1214.33 x10E3/uL
ALANINE AMINOTRANSFERASE (120 h, time 5 day): 67 u/L
ALBUMIN (120 h, time 5 day): 4 G/DL
ALKALINE PHOSPHATASE (120 h, time 5 day): 343.67 u/L
ASPARTATE AMINOTRANSFERASE (120 h, time 5 day): 109.67 u/L
BLOOD UREA NITROGEN (120 h, time 5 day): 15 mg/dL
CARBON DIOXIDE (120 h, time 5 day): 27 mmol/L
CHLORIDE (120 h, time 5 day): 101 MEQ/L
CHOLESTEROL (120 h, time 5 day): 81.67 mg/dL
CREATINE PHOSPHOKINASE (120 h, time 5 day): 429 u/L
CREATININE (120 h, time 5 day): 0.19 mg/dL
GLUCOSE (120 h, time 5 day): 142.33 mg/dL
LACTATE DEHYDROGENASE (120 h, time 5 day): 632 u/L
LIPASE (120 h, time 5 day): 10.67 u/L
PHOSPHORUS (120 h, time 5 day): 11.1 mg/dL
POTASSIUM (120 h, time 5 day): 5.98 MEQ/L
SODIUM (120 h, time 5 day): 144.97 MEQ/L
TOTAL BILIRUBIN (120 h, time 5 day): 0.13 mg/dL
TOTAL PROTEIN (120 h, time 5 day): 5.63 G/DL
URIC ACID (120 h, time 5 day): 1.63 mg/dL
